Experimental data reported in patent US20230001012A1, “COCRYSTALS OF STEROID AND SECOSTEROID COMPOUNDS AND COMPOSITIONS COMPRISING THEM” (priority 2019, published 2023).
One block for each compound: values may come before it.

Legend:
Type in all cases: physicochemical
[1] = Dissolution rate of tablets in FaSSIF v2 medium (small-scale dissolution assay, UV quantification, Noyes-Whitney fit); conditions: FaSSIF v2 (pH 6.5), 25° C.; for dissolution rate: 120 minutes, 3 mm tablet
Protocol: Molar extinction coefficients of VD2, VD3 and of the coformer were determined by UV-metric titration using a GIpKa™ titrator (Sirius Analytical Instruments, UK). Briefly, a 10 mM stock solution of sample was prepared in DMSO. 50 μL of sample stock solution and 0.25 mL of a 15 mM potassium phosphate buffer were added to 10 mL of a 0.15 M KCl solution, which in turn contained 17.9 mg of FaSSIF v2 powder. The pH of the sample solution was adjusted to 2 with 0.5 M HCl before starting the titration, and then the titration was done using 0.5 M KOH up to pH 12. The UV absorption spectra (between 250 and 450 nm) of the solution were recorded at each titrant addition by a fiber optic dip-probe. The collected data were refined through the RefinamentPro software, and the pKa values and Molar Extinction Coefficients obtained by Target Factor Analysis.
• Tablet production: tablets of 3 mm diameter were done using a manual hydraulic tablet press (Applied Measurements Ltd, UK). The applied pressure was 100 Kg for 2 min. From 6 to 10 mg of each solid form, vitamin or cocrystal, were weighted. The total exposed surface area was […]. • Medium: FaSSIF v2 (pH 6.5), with corresponding amount of phosphoric (28.4 mM) acid instead of maleic acid. • Dissolution tests were performed with a small-scale dissolution assay installed in a GIpKa™ titrator (Sirius Analytical Instruments, UK). • Dissolution time and temperature: 120 minutes and 25° C. • Procedure: 15 mL of FaSSIF v2 was added into the sample vial containing the tablet. Spectra collection started immediately after. Spectra were recorded every 30 seconds between 250 and 450 nm through a Sirius D-PAS spectrometer with a bifurcated optic fibre dip probe (Hellma Analytics). The medium was stirred at a constant rate.
The concentration of cholecalciferol (VD3) or ergocalciferol (VD2) in solution at each time point is determined from the spectroscopic data by applying the Beer-Lambert law, using previously determined molar extinction coefficients of the pure APIs and the coformers. Spectrum regions where signal is saturated (A>1.5) or presenting medium interferences were discarded. Then, the concentration data were converted into absolute sample quantities, and used to generate the graphs showing the sample quantity vs. time.
Dissolution rate is obtained through the fit of the first order Noyes-Whitney exponential equation to the data: […]
In this equation, [X]t is the weight in grams of compound in solution at the experiment time (min); S is the extrapolated solubility (g) of the vitamin; kd is the rate constant for dissolution (min^−1); and t0 (min) is a term allowing for a temporal offset. Results are calculated using a refinement process in which S, kd and t0 are varied in order to minimize the root mean square deviation between the modelled concentrations and the measured concentrations. The dissolution rate (g min^−1) is given by the product kdS (T. Gravestock et al., Anal. Methods, 2011, 3, 560).

[2] = Stability of VD2 vs VD2 cocrystals (beta-sitosterol, orcinol) under two stress conditions, solid form analysed periodically by PXRD; conditions: for stability under both stress conditions (in words): 25° C./57% RH and 40° C./75% RH
Protocol: The stability of the VD2 cocrystal with beta-sitosterol and VD2 cocrystal with orcinol was studied and compared to the stability of VD2 (Form A) under two stress conditions. The samples were stored under both stress conditions inside a Series FD Binder chamber and they were analyzed periodically by PXRD. The two stress conditions were the following: • condition A: 25° C. and 57% relative humidity; • condition B: 40° C. and 75% relative humidity.
A saturated solution of sodium bromide salt (for 57% RH) and a saturated solution of sodium chloride (for 75% RH) were used to control relative humidity.

[3] = Stability of VD3:resorcinol cocrystal vs commercial VD3 in a mineral-vitamin premix containing choline chloride (HPLC-MS)
Protocol: The stability of the VD3:resorcinol cocrystal mixed in a premix that was a standard mineral-vitamin mix containing choline was studied under normal and high environmental temperature/humidity and compared to the stability of commercial VD3 for animal nutrition (Orffa D3 500) in the same premix under de same conditions.
• 25° C. and 57% humidity (temperature controlled chambers with a saturated solution of NaBr to maintain humidity at 57%); • 40° C. and 75% humidity (temperature controlled chambers with a saturated solution of NaCl to maintain humidity at 75%).
The mineral mix was supplemented to contain 750,000 UI/kg Vitamin A, 5,000 mg/kg vitamin E and 12.5% choline chloride (choline chloride, vegetal coating, 60%). VD3 final content was 1,600,000 UI/Kg (both for the cocrystal VD3:resorcinol and for the commercial VD3.
Samples (2 g) were weighted in 50 mL plastic tubes and incubated in the experimental conditions (see above). Samples for each individual time were incubated in quadruplicates to account for potential variation. Samples were prepared to be retrieved from incubators at 2, 4, 8 and 12 weeks. After each time, samples were processed and analyzed immediately (no storage).
Samples were subjected to an extraction process done in the incubation tube with the full sample to avoid sub-sampling problems. Extracted supernatant was analysed for vitamin D using and HPLC (Model 1260 Series, Agilent, Darmstadr, Germany) coupled with a MS-QQQ (Model G6420, Agilent) against a calibrated curve using a standard vitamin D3. Results are reported as a percent degradation compared with the original Vitamin concentration.

[4] = Stability of VD3 vs VD3:orcinol cocrystal under stress conditions (40° C.-75% RH), solid form analysed periodically by PXRD
Protocol: The samples were stored under these conditions inside a Series FD Binder chamber and they were analyzed periodically by PXRD. A saturated solution of sodium chloride (75%) was used to control relative humidity.

[5] = 40° C./75% H, premix with choline chloride

dissolution rate [1]: 0.74 ± 0.23 nmol/min
Solid form (PXRD) under stress conditions ([2]; 25° C.-57% RH, 0 days): Form A
Solid form (PXRD) under stress conditions ([2]; 25° C.-57% RH, 370 days): Amorphous phase
stability under both stress conditions (in words) [2]: very low stability
Solid form (PXRD) under stress conditions ([2]; 40° C.-75% RH, 0 days): Form A
Solid form (PXRD) under stress conditions ([2]; 40° C.-75% RH, 210 days): Liquid phase
time at which conversion into an amorphous phase started ([2]; both stress conditions): ≤ 25 days
SMILES: C=C1CC[C@H](O)C/C1=C/C=C1\CCC[C@]2(C)[C@@H]([C@H](C)/C=C/[C@H](C)C(C)C)CC[C@@H]12 [VD2, ergocalciferol]

SMILES: C=C1CCC(O)CC1=CC=C1CCCC2(C)C1CCC2C(C)C=CC(C)C(C)C.C=C1CCC(O)CC1=CC=C1CCCC2(C)C1CCC2C(C)C=CC(C)C(C)C.CCC(CCC(C)C1CCC2C3CC=C4CC(O)CCC4(C)C3CCC12C)C(C)C (stereo not drawn) [VD2:beta-sitosterol]
time remained as the same starting solid form ([2]; 25° C. and 57% of relative humidity): ≥ 370 days
stability under both stress conditions (in words) [2]: very high stability
time remained as the same starting solid form ([2]; 40° C. and 75% of relative humidity): ≥ 25 days
Solid form (PXRD) under stress conditions ([2]; 40° C.-75% RH, 210 days): Amorphous
Solid form (PXRD) under stress conditions ([2]; 40° C.-75% RH, 370 days): Amorphous

SMILES: C=C1CC[C@H](O)C/C1=C/C=C1\CCC[C@]2(C)[C@@H]([C@H](C)CCCC(C)C)CC[C@@H]12 [VD3, cholecalciferol, reference compound]
stability in premix, comparison of the two environmental conditions ([3]; 25° C./57% H vs 40° C./75% H): more stable at 25° C./57% H compared with 40° C./75% H
dissolution rate [1]: 0.58 ± 0.14 nmol/min
stability under stress conditions (in words) [4]: very low stability
time to conversion into a liquid phase [4]: five
Solid form (PXRD) under stress conditions ([4]; 0 days): Form A
Solid form (PXRD) under stress conditions ([4]; 5 days): liquid

SMILES: C=C1CCC(O)CC1=CC=C1CCCC2(C)C1CCC2C(C)C=CC(C)C(C)C.C=C1CCC(O)CC1=CC=C1CCCC2(C)C1CCC2C(C)CCCC(C)C (centres unmarked) [VD3-VD2]
dissolution rate [1]: 0.63 ± 0.21 nmol/min

stability in premix compared with VD3 ([3]; 25° C./57% H, premix with choline chloride): more stable than VD3
change of stability in premix [3, 5]: sharp reduction in stability
stability in premix compared with commercial VD3 [3, 5]: better performance than commercial VD3
stability in premix compared with VD3 ([3]; both conditions (25° C./57% H and 40° C./75% H)): more stable than VD3
dissolution rate [1]: 0.94 ± 0.22 nmol/min
SMILES: C=C1CCC(O)CC1=CC=C1CCCC2(C)C1CCC2C(C)CCCC(C)C.Oc1cccc(O)c1 (centres unmarked) [VD3-resorcinol]
dissolution speed compared with other solid forms [1]: dissolved faster than VD2, VD3, or VD2-VD3

stability under stress conditions (in words) [4]: very high stability
SMILES: C=C1CCC(O)CC1=CC=C1CCCC2(C)C1CCC2C(C)CCCC(C)C.Cc1cc(O)cc(O)c1 (centres unmarked) [VD3:orcinol]
